Data on 15 molecules can be found in PubChem BioAssay AID180 (DTP/NCI, 2004).

In this assay the test system is BDF1 mice, Adenocarcinoma 755 s.c., tumor weight T/C. Kind of assay: NCI In Vivo Anticancer Drug Screen. Data for tumor model Adenocarcinoma 755 (subcutaneous) in B6D2F1 (BDF1) mice. As to conditions: endpoint: mean tumor weight, schedule: Q01DX011 (ip), higher = larger tumour. A digest of the protocol:
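Tumor-bearing mice receive test compound while controls get vehicle alone. Antitumor effect is scored from survival or tumor dimensions as a T/C quotient.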

The mark [1] stands for this setting: dose: 30.0 mg/kg/injection, vehicle: carboxymethylcellulose (CMC).
Where [2] appears, read: dose: 120.0 mg/kg/injection, vehicle: carboxymethylcellulose (CMC).
[3] abbreviates: dose: 240.0 mg/kg/injection, vehicle: carboxymethylcellulose (CMC).
Setting [4] is: dose: 6.25 mg/kg/injection, vehicle: methylcellulose (MC).
Setting [5] is: dose: 12.5 mg/kg/injection, vehicle: methylcellulose (MC).
Where [6] appears, read: dose: 25.0 mg/kg/injection, vehicle: methylcellulose (MC).
[7] abbreviates: dose: 50.0 mg/kg/injection, vehicle: methylcellulose (MC).
Setting [8] is: dose: 1.0 mg/kg/injection, vehicle: carboxymethylcellulose (CMC).

Where “and” joins values, the source holds several entries; their conditions need not be identical. Equal values may be shown once.

As for `[I][Hg][CH2]C1COCC([CH2][Hg][I])O1.[I][Hg][CH2]C1COCC([CH2][Hg][I])O1` (configuration not stated), the T/C (dose: 10.0 mg/kg/injection, vehicle: other) is 59 % of control; the T/C (dose: 20.0 mg/kg/injection, vehicle: other) was 63 % of control; the T/C (dose: 40.0 mg/kg/injection, vehicle: other) is 31 % of control.

As to `O=c1cc2[nH]c(O)cn2c(=O)[nH]1`, the T/C was 95 % of control and 73 % of control under setting [1]; 47 % of control under setting [2]; 64 % of control under setting [3].

Consider `CC(C)Cn1cnc2c(SCc3cccc(F)c3)nc(N)nc21`, for which the T/C under setting [4] was 75 % of control, the T/C under setting [5] was 55 % of control, the T/C under setting [6] is 15 % of control and the T/C under setting [7] was 1 % of control.

For the molecule `Cc1n[nH]c(=O)[nH]c1=O`, the T/C is 59 % of control (dose: 400.0 mg/kg/injection, vehicle: other) and 72 % of control (dose: 800.0 mg/kg/injection, vehicle: other).

For `Cc1ccc(/C=N/Nc2nc3c([nH]2)c(=O)n(C)c(=O)n3C)cc1`, the T/C is 95 % of control under setting [1]; 115 % of control (dose: 60.0 mg/kg/injection, vehicle: carboxymethylcellulose (CMC)); 112 % of control under setting [2]; 81 % of control under setting [3].

On to `Nc1ncnc2c1ccn2C1OC(CO)C(O)C1O` (configuration not stated), for which the T/C is 68 % of control (dose: 0.5 mg/kg/injection, vehicle: carboxymethylcellulose (CMC)) and 76 % of control under setting [8].

`Cn1cc(F)c(=O)[nH]c1=O`: the T/C runs as follows: (dose: 5.0 mg/kg/injection, vehicle: carboxymethylcellulose (CMC)) 86 % of control; (dose: 10.0 mg/kg/injection, vehicle: carboxymethylcellulose (CMC)) 117 % of control; (dose: 20.0 mg/kg/injection, vehicle: carboxymethylcellulose (CMC)) 87 % of control; (dose: 40.0 mg/kg/injection, vehicle: carboxymethylcellulose (CMC)) 99 % of control.

Take `CCCCn1cnc2c(SCc3ccc(F)cc3)nc(N)nc21`: the T/C reads like this: (dose: 3.1 mg/kg/injection, vehicle: methylcellulose (MC)) 59 % of control; under setting [4], 47 % of control; under setting [5], 22 % of control; under setting [6], 10 % of control and 14 % of control; under setting [7], 2 % of control.

In the case of `CCn1cnc2c(=S)nc(N)[nH]c21`, the T/C was 108 % of control (dose: 0.44 mg/kg/injection, vehicle: methylcellulose (MC)); 66 % of control (dose: 0.88 mg/kg/injection, vehicle: methylcellulose (MC)); 33 % of control (dose: 1.75 mg/kg/injection, vehicle: methylcellulose (MC)); 3 % of control (dose: 3.5 mg/kg/injection, vehicle: methylcellulose (MC)).

For `CCN(CC)CCC(=O)N1CCN(C(=O)CCN(CC)CC)CC1`, the T/C runs as follows: (dose: 3.8 mg/kg/injection, vehicle: methylcellulose (MC)) 110 % of control; (dose: 7.5 mg/kg/injection, vehicle: methylcellulose (MC)) 113 % of control; (dose: 15.0 mg/kg/injection, vehicle: methylcellulose (MC)) 71 % of control; (dose: 30.0 mg/kg/injection, vehicle: methylcellulose (MC)) 79 % of control; (dose: 30.0 mg/kg/injection, vehicle: saline) 119 % of control; (dose: 60.0 mg/kg/injection, vehicle: saline) 105 % of control.

Consider `CCCCn1cnc2c(SCC(=O)O)nc(N)nc21`, for which the T/C runs as follows: under setting [6], 54 % of control; (dose: 80.0 mg/kg/injection, vehicle: methylcellulose (MC)) 58 % of control; (dose: 250.0 mg/kg/injection, vehicle: methylcellulose (MC)) 69 % of control.

On to `CC(=O)N(c1ccccc1)c1ccccc1`, for which the T/C (dose: 3.12 mg/kg/injection, vehicle: other) is 83 % of control; the T/C (dose: 6.25 mg/kg/injection, vehicle: other) was 92 % of control; the T/C (dose: 12.5 mg/kg/injection, vehicle: other) was 80 % of control; the T/C (dose: 25.0 mg/kg/injection, vehicle: other) was 97 % of control.

Regarding `O=C(C1C(c2ccccc2)N1Cc1ccccc1)C1C(c2ccccc2)N1Cc1ccccc1` (configuration not stated), the T/C by setting is: under setting [6], 47 % of control; under setting [7], 77 % of control; (dose: 100.0 mg/kg/injection, vehicle: methylcellulose (MC)) 66 % of control.

In the case of `COC(=O)[C@@H]1c2cc3c(c(O)c2[C@@H](OC2OC(C)C(OC)C(C)(OC)C2OC)C[C@]1(C)O)C(=O)c1c(O)cc2c(c1C3=O)O[C@H]1O[C@]2(C)[C@H](O)[C@@H](N(C)C)[C@@H]1O` (some centres not stated), the T/C reads like this: (dose: 0.2 mg/kg/injection, vehicle: carboxymethylcellulose (CMC)) 83 % of control; (dose: 0.3 mg/kg/injection, vehicle: carboxymethylcellulose (CMC)) 89 % of control; (dose: 0.3 mg/kg/injection, vehicle: saline) 179 % of control; (dose: 0.44 mg/kg/injection, vehicle: carboxymethylcellulose (CMC)) 57 % of control; (dose: 0.44 mg/kg/injection, vehicle: saline) 113 % of control; (dose: 0.67 mg/kg/injection, vehicle: carboxymethylcellulose (CMC)) 99 % of control. Under setting [8], the T/C was 103 % of control.

For the molecule `CC(C)Cn1cnc2c(SCC(=O)O)nc(N)nc21`, the T/C reads like this: under setting [6], 114 % of control; (dose: 75.0 mg/kg/injection, vehicle: methylcellulose (MC)) 85 % of control; (dose: 225.0 mg/kg/injection, vehicle: methylcellulose (MC)) 114 % of control.

Broadly, the T/C is the ratio of treated to control.
